Columns and labels:
[1] = system: MDA-MB-231 (human breast cancer cells); experiment: In-vitro cytotoxicity, MTT assay (Example 1); format: cell-based; conditions: MDA-MB-231, 120 h, Table I, four to five days in the presence of drugs
Procedure: (§1) The conventional evaluation method proposed by the American National Cancer Institute was used. The method measures effectiveness of an anti-cancer drug based on IC50 which symbolizes the drug concentration in μM at which the drug achieves the inhibition of proliferation of a given line of cancer cells by a factor of one half when compared to the normal proliferation of the same line of cancer cells in the same growth media
(§2) CAU were tested on several cell lines including human non-hormone-dependant breast cancer cells (MDA-MB-231), and mouse leukemia (L1210). MDA-MB-231. These cell lines were obtained from the American Type Culture Collection (Bethesda, Md., USA). Cytotoxicity of CAU derivatives was tested and compared to the effect of chlorambucil and carmustine.
(§3) Tumor cells were grown in RPMI-1640 medium supplemented with 10% fetal calf serum, 2 mM glutamine and 64 U/mL of gentamycin. Cells were routinely passaged at 90% confluence.
(§4) Five thousand cells (100 μl) were seeded in 96 well's plate and incubated for one day at 37° C. under a humidified atmosphere, in presence of 5% CO2. […]
(§5) Cell's survival was evaluated by colorimetric assay using MTT, according to a modification of the procedure reported by Carmichael and coil. […] The plates were then shaken for 15 minutes and the absorbance read at 570 nm with a Behring Elisa Procesor II (Behring, Marburg, Germany). […]

[2] = system: L1210 (mouse leukemia cells); experiment: In-vitro cytotoxicity, MTT assay (Example 1); format: cell-based; conditions: L1210, 120 h, Table I, four to five days in the presence of drugs
Procedure: as §1, §2, §3, §4, §5

[3] = system: DU-145; experiment: Cytotoxicity assay G50, MTT or resazurin (Example 29); format: cell-based; conditions: Homo sapiens; cell line DU-145
Procedure: (§6) Cell culture. Tumor cell lines (B16-F0, Caco-2, DU-145, HT-29, MDA-MB-231 and other cell lines described so far in the patent application) were obtained from the American Type Culture Collection (ATCC HTB-26; Bethesda, Md.). Cells were grown in RPMI 1640 medium supplemented with 10% fetal bovine serum (Hyclone, Road Logan, Utah) and were cultured in a humidified atmosphere at 37° C. in 5% CO2.
(§7) Drugs: All drugs were dissolved in DMSO and the final concentration of DMSO in the culture medium was maintained at 0.5% (v/v).
(§8) Cytotoxiciy assays. At day-1, tumor cells in suspension in 100 μl were plated in microtiter plates (96 wells). On day-0, tumor cells were treated by addition of escalating concentrations of the drug (100 μl solution). On that day, the number of living cells was determined in wells that were untreated. The number of living cells is determined using either MTT or resazurin assays. Growth inhibition activity of these compounds was expressed as the concentration of CAU inhibiting cell growth by 50% G50 in the following table
(§9) The MTT assay was as described above in Example 1. The Resazurin assay was performed as follows:
(§10) Aspirate the supernatant (cell suspension: centrifuge first)
(§11) Add 100 μL NaCl 0.9% (saline)
(§12) Add 50 μL RZ (resazurin 125 μg/ml/PBS: RPMI without FBS; 1:4)
(§13) Collect fluorescence data at different time.

[4] = system: B16-F0; experiment: as above; format: cell-based; conditions: Mus musculus, B16F0; cell line B16-F0
Procedure: as §6, §7, §8, §9, §10, §11, §12, §13

[5] = system: MDA-MB-231; experiment: as above; format: cell-based; conditions: Homo sapiens; cell line MDA-MB-231
Procedure: as §6, §7, §8, §9, §10, §11, §12, §13

[6] = system: HT-29; experiment: as above; format: cell-based; conditions: Homo sapiens; cell line HT-29
Procedure: as §6, §7, §8, §9, §10, §11, §12, §13

[7] = system: Caco-2; experiment: as above; format: cell-based; conditions: Homo sapiens; cell line Caco-2
Procedure: as §6, §7, §8, §9, §10, §11, §12, §13

[8] = system: K562; experiment: as above; format: cell-based; conditions: Homo sapiens; cell line K562
Procedure: as §9, §10, §11, §12, §13

[9] = system: T24; experiment: as above; format: cell-based; conditions: Homo sapiens, T-24; cell line T24
Procedure: as §9, §10, §11, §12, §13

[10] = system: L1210; experiment: as above; format: cell-based; conditions: Mus musculus; cell line L1210
Procedure: as §9, §10, §11, §12, §13

[11] = system: MCF-7; experiment: as above; format: cell-based; conditions: Homo sapiens, MCF7; cell line MCF-7
Procedure: as §9, §10, §11, §12, §13

[12] = system: CHO; experiment: as above; format: cell-based, Chinese Hamster; conditions: Cricetulus griseus; cell line CHO
Procedure: as §9, §10, §11, §12, §13

SMILES	IC50 [1] [µM]	IC50 [2] [µM]	IC50 [3] [µM]	IC50 [4] [µM]	IC50 [5] [µM]	IC50 [6] [µM]	IC50 [7] [µM]	IC50 [8] [µM]	IC50 [9] [µM]	IC50 [10] [µM]	IC50 [11] [µM]	IC50 [12] [µM]
O=NN(CCCl)C(=O)NCCCl [Carmustine, carmustine]	6.8	4.5	–	–	–	–	–	–	–	–	–	–
CCCCCCCc1ccc(NC(=O)N[C@H](CC)CCl)cc1 [Example 24]	–	–	4.02	3.74	5.17	2.94	4.85	2.9	3.61	4.04	3.78	3.14
CCCCCCOc1ccc(NC(=O)N[C@H](C)CCl)cc1 [Example 26]	–	–	13.2	6.38	10.5	9.55	8.57	2.68	7.14	6.21	8.3	2.63
CCCCCCOc1ccc(NC(=O)N[C@@H](C)CCl)cc1 [Example 27]	–	–	12.6	8.45	9.08	10.5	7.98	7.48	9.93	8.2	7.99	3.66
CCCCCCOc1ccc(NC(=O)N[C@@H](CC)CCl)cc1 [Example 28]	–	–	9.46	8.26	8.75	8.12	9.5	3.88	7.16	7.42	10.4	3.28

— patent US6686394B1, “Aryl-chloro-ethyl ureas” (Sovar, Societe en Commandite, priority 1999, dated 2004)
